# ChEMBL document CHEMBL3885881, “DrugMatrix”
# Species: Rattus norvegicus
# Format: toxicity, organism-based, Sprague-Dawley
# Conditions: in vivo, po, route oral GAVAGE, vehicle 100 % SALINE; for ABSOLUTE EOSINOPHIL / ABSOLUTE LYMPHOCYTE / ABSOLUTE MONOCYTE / ABSOLUTE SEGMENTED NEUTROPHIL / BASOPHIL / EOSINOPHIL / ERYTHROCYTE COUNT / HEMATOCRIT / HEMOGLOBIN / LEUKOCYTE COUNT / LYMPHOCYTE / MEAN CORPUSCULAR HEMOGLOBIN / MEAN CORPUSCULAR HEMOGLOBIN CONCENTRATION / MEAN CORPUSCULAR VOLUME / MONOCYTE / NEUTROPHIL / NUCLEATED RED BLOOD CELLS / PLATELET COUNT: tissue Blood; for ALANINE AMINOTRANSFERASE / ALBUMIN / ALKALINE PHOSPHATASE / ASPARTATE AMINOTRANSFERASE / BLOOD UREA NITROGEN / CARBON DIOXIDE / CHLORIDE / CHOLESTEROL / CREATINE PHOSPHOKINASE / CREATININE / GLUCOSE / LACTATE DEHYDROGENASE / LIPASE / PHOSPHORUS / POTASSIUM / SODIUM / TOTAL BILIRUBIN / TOTAL PROTEIN / URIC ACID: tissue Plasma
# [1] = 3000 mg/kg, 24 h, dose level Low, time 1 day
# [2] = 6000 mg/kg, 6 h, dose level High, time 0.25 day
# [3] = 6000 mg/kg, 24 h, dose level High, time 1 day
# Description: DrugMatrix - Regimen: Single
smiles,measurement,setting,value
CCO [ALCOHOL],ABSOLUTE EOSINOPHIL,[1],30.5 CELLS/uL
same,ABSOLUTE LYMPHOCYTE,[1],9902 CELLS/uL
same,ABSOLUTE MONOCYTE,[1],124.33 CELLS/uL
same,ABSOLUTE SEGMENTED NEUTROPHIL,[1],1059.83 CELLS/uL
same,BASOPHIL,[1],0%
same,EOSINOPHIL,[1],0.17%
same,ERYTHROCYTE COUNT,[1],5.39 x10E6/uL
same,HEMATOCRIT,[1],34.67%
same,HEMOGLOBIN,[1],13.7 G/DL
same,LEUKOCYTE COUNT,[1],11.12 x10E3/uL
same,LYMPHOCYTE,[1],88.17%
same,MEAN CORPUSCULAR HEMOGLOBIN,[1],25.42 pg
same,MEAN CORPUSCULAR HEMOGLOBIN CONCENTRATION,[1],39.57 G/DL
same,MEAN CORPUSCULAR VOLUME,[1],64.33 fL
same,MONOCYTE,[1],1.17%
same,NEUTROPHIL,[1],10.5%
same,NUCLEATED RED BLOOD CELLS,[1],0 /100WBC
same,PLATELET COUNT,[1],1071.33 x10E3/uL
same,ALANINE AMINOTRANSFERASE,[1],70.67 u/L
same,ALBUMIN,[1],4.18 G/DL
same,ALKALINE PHOSPHATASE,[1],267 u/L
same,ASPARTATE AMINOTRANSFERASE,[1],95.33 u/L
same,BLOOD UREA NITROGEN,[1],11.67 mg/dL
same,CARBON DIOXIDE,[1],35.67 mmol/L
same,CHLORIDE,[1],99.5 MEQ/L
same,CHOLESTEROL,[1],80.17 mg/dL
same,CREATINE PHOSPHOKINASE,[1],199.5 u/L
same,CREATININE,[1],0.21 mg/dL
same,GLUCOSE,[1],141 mg/dL
same,LACTATE DEHYDROGENASE,[1],59.67 u/L
same,LIPASE,[1],9.67 u/L
same,PHOSPHORUS,[1],10.12 mg/dL
same,POTASSIUM,[1],5.58 MEQ/L
same,SODIUM,[1],145.6 MEQ/L
same,TOTAL BILIRUBIN,[1],0.17 mg/dL
same,TOTAL PROTEIN,[1],6.1 G/DL
same,URIC ACID,[1],0.45 mg/dL
same,ABSOLUTE EOSINOPHIL,[2],29.17 CELLS/uL
same,ABSOLUTE LYMPHOCYTE,[2],14165.5 CELLS/uL
same,ABSOLUTE MONOCYTE,[2],257.5 CELLS/uL
same,ABSOLUTE SEGMENTED NEUTROPHIL,[2],3164.5 CELLS/uL
same,BASOPHIL,[2],0%
same,EOSINOPHIL,[2],0.17%
same,ERYTHROCYTE COUNT,[2],5.58 x10E6/uL
same,HEMATOCRIT,[2],37.53%
same,HEMOGLOBIN,[2],13.8 G/DL
same,LEUKOCYTE COUNT,[2],17.62 x10E3/uL
same,LYMPHOCYTE,[2],81.33%
same,MEAN CORPUSCULAR HEMOGLOBIN,[2],24.78 pg
same,MEAN CORPUSCULAR HEMOGLOBIN CONCENTRATION,[2],36.83 G/DL
same,MEAN CORPUSCULAR VOLUME,[2],67.33 fL
same,MONOCYTE,[2],1.33%
same,NEUTROPHIL,[2],17.17%
same,NUCLEATED RED BLOOD CELLS,[2],0 /100WBC
same,PLATELET COUNT,[2],1061.5 x10E3/uL
same,ALANINE AMINOTRANSFERASE,[2],46 u/L
same,ALBUMIN,[2],3.8 G/DL
same,ALKALINE PHOSPHATASE,[2],242.17 u/L
same,ASPARTATE AMINOTRANSFERASE,[2],95.83 u/L
same,BLOOD UREA NITROGEN,[2],12.33 mg/dL
same,CARBON DIOXIDE,[2],17.17 mmol/L
same,CHLORIDE,[2],105.33 MEQ/L
same,CHOLESTEROL,[2],77 mg/dL
same,CREATINE PHOSPHOKINASE,[2],431.5 u/L
same,CREATININE,[2],0.13 mg/dL
same,GLUCOSE,[2],194.5 mg/dL
same,LACTATE DEHYDROGENASE,[2],355.33 u/L
same,LIPASE,[2],9.33 u/L
same,PHOSPHORUS,[2],16.82 mg/dL
same,POTASSIUM,[2],5.94 MEQ/L
same,SODIUM,[2],144.57 MEQ/L
same,TOTAL BILIRUBIN,[2],0.0667 mg/dL
same,TOTAL PROTEIN,[2],5.12 G/DL
same,URIC ACID,[2],2.45 mg/dL
same,ABSOLUTE EOSINOPHIL,[3],0 CELLS/uL
same,ABSOLUTE LYMPHOCYTE,[3],13674.83 CELLS/uL
same,ABSOLUTE MONOCYTE,[3],258.33 CELLS/uL
same,ABSOLUTE SEGMENTED NEUTROPHIL,[3],983.5 CELLS/uL
same,BASOPHIL,[3],0%
same,EOSINOPHIL,[3],0%
same,ERYTHROCYTE COUNT,[3],5.27 x10E6/uL
same,HEMATOCRIT,[3],34.4%
same,HEMOGLOBIN,[3],13.68 G/DL
same,LEUKOCYTE COUNT,[3],14.92 x10E3/uL
same,LYMPHOCYTE,[3],91.33%
same,MEAN CORPUSCULAR HEMOGLOBIN,[3],26.03 pg
same,MEAN CORPUSCULAR HEMOGLOBIN CONCENTRATION,[3],39.82 G/DL
same,MEAN CORPUSCULAR VOLUME,[3],65.33 fL
same,MONOCYTE,[3],1.83%
same,NEUTROPHIL,[3],6.83%
same,NUCLEATED RED BLOOD CELLS,[3],0 /100WBC
same,PLATELET COUNT,[3],1124.67 x10E3/uL
same,ALANINE AMINOTRANSFERASE,[3],81 u/L
same,ALBUMIN,[3],3.95 G/DL
same,ALKALINE PHOSPHATASE,[3],284.5 u/L
same,ASPARTATE AMINOTRANSFERASE,[3],90.67 u/L
same,BLOOD UREA NITROGEN,[3],11.5 mg/dL
same,CARBON DIOXIDE,[3],32.5 mmol/L
same,CHLORIDE,[3],100.67 MEQ/L
same,CHOLESTEROL,[3],68.83 mg/dL
same,CREATINE PHOSPHOKINASE,[3],207.83 u/L
same,CREATININE,[3],0.3 mg/dL
same,GLUCOSE,[3],144 mg/dL
same,LACTATE DEHYDROGENASE,[3],74 u/L
same,LIPASE,[3],9 u/L
same,PHOSPHORUS,[3],10.7 mg/dL
same,POTASSIUM,[3],5.34 MEQ/L
same,SODIUM,[3],145 MEQ/L
same,TOTAL BILIRUBIN,[3],0.15 mg/dL
same,TOTAL PROTEIN,[3],5.78 G/DL
same,URIC ACID,[3],0.53 mg/dL
